Measurements reported in ChEMBL document CHEMBL5465560, “Selectivity Literature for EUbOPEN Chemogenomic Library” (2024).
One block for each molecule: values may come before it.

What was measured:
[1] = system: Proto-oncogene tyrosine-protein kinase receptor Ret (Homo sapiens), P07949 [V804L]; assay: (§1) Selectivity interaction (KinomeScan (DiscoverX)) EUB0000607a RET; conditions: at 10 µM
[2] = biological target: Proto-oncogene tyrosine-protein kinase receptor Ret (Homo sapiens, UniProt P07949); assay: as §1; conditions: at 10 µM
Proto-oncogene tyrosine-protein kinase receptor Ret, sequence (P07949 whole entry): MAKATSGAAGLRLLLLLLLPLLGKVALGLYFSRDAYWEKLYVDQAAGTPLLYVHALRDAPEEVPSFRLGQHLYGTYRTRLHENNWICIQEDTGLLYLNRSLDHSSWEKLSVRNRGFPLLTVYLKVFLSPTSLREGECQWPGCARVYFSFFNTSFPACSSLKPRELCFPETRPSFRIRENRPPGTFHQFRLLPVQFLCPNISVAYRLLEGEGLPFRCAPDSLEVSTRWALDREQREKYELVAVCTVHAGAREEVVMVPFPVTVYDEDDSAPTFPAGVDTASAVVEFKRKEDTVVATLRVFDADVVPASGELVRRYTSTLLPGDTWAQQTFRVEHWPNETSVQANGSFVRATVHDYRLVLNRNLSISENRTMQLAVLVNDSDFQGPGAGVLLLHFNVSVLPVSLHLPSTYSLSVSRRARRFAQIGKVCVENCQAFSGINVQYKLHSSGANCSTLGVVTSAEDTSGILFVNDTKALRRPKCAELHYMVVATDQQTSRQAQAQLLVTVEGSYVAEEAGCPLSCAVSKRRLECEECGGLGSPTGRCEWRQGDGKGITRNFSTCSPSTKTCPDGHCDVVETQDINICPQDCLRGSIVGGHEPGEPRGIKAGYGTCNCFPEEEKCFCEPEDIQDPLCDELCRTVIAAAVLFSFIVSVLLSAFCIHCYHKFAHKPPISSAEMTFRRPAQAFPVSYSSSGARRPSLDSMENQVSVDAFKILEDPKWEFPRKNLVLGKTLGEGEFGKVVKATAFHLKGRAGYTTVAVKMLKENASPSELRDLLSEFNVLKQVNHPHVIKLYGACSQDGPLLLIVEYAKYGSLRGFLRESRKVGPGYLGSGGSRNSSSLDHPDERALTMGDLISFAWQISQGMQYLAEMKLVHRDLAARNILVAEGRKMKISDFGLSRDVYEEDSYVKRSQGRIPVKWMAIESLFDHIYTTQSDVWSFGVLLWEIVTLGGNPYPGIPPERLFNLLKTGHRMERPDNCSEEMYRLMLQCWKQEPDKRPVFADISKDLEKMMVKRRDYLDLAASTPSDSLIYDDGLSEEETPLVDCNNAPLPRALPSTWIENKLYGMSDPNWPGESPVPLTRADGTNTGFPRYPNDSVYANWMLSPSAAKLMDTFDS

[3] = system: Proto-oncogene tyrosine-protein kinase receptor Ret (Homo sapiens), P07949 [V804M]; assay: as §1; conditions: at 10 µM
Proto-oncogene tyrosine-protein kinase receptor Ret (Homo sapiens), P07949 [V804M], sequence (P07949 whole entry V804M): as the sequence (P07949 whole entry) above, with V804M counted along it

[4] = system: Proto-oncogene tyrosine-protein kinase receptor Ret (Homo sapiens), P07949 [M918T]; assay: as §1; conditions: at 10 µM
Proto-oncogene tyrosine-protein kinase receptor Ret (Homo sapiens), P07949 [M918T], sequence (P07949 whole entry M918T): as the sequence (P07949 whole entry) above, with M918T counted along it

[5] = biological target: Tyrosine-protein kinase HCK (Homo sapiens) (UniProt P08631); assay: Selectivity interaction (Upstate Kinase Profiler service (Millipore)) EUB0000056c HCK; conditions: at 1 µM
Tyrosine-protein kinase HCK (Homo sapiens), sequence (P08631 2-526 limits assumed): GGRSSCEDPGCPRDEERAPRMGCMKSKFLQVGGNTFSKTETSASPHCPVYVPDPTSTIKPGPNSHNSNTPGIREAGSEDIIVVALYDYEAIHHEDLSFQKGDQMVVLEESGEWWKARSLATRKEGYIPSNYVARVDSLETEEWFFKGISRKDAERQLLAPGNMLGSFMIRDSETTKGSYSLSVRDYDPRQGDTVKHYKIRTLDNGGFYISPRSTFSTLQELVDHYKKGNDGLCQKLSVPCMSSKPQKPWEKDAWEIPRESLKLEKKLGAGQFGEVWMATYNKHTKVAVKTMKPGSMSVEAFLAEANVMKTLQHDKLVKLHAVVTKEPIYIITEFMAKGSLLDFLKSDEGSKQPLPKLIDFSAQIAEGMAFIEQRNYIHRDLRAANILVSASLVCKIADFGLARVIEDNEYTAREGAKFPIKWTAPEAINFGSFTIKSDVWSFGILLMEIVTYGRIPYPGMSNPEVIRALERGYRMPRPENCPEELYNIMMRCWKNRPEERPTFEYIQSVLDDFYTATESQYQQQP

[6] = biological target: Proto-oncogene tyrosine-protein kinase Src (Homo sapiens, UniProt P12931); assay: Selectivity interaction (Kinase panel (Invitrogen)) EUB0000639a SRC; conditions: at 200 nM
Proto-oncogene tyrosine-protein kinase Src, sequence (P12931 2-536 limits assumed): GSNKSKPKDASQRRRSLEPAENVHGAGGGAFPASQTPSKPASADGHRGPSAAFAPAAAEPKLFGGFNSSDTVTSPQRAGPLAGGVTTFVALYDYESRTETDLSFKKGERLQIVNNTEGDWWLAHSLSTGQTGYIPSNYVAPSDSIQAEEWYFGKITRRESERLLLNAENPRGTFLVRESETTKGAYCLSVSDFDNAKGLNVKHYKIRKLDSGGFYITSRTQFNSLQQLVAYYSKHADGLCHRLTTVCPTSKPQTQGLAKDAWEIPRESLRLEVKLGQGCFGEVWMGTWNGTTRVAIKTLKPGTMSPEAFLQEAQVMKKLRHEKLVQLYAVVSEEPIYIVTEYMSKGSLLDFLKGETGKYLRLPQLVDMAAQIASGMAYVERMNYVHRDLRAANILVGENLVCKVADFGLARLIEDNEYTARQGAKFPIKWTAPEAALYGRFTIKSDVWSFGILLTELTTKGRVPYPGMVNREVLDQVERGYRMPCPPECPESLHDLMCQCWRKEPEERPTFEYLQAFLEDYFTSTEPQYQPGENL

[7] = biological target: T1, Phosphorylase b kinase gamma catalytic chain, liver/testis isoform (Homo sapiens) (UniProt P15735); assay: Selectivity interaction (KinomeScan (DiscoverX)) EUB0000595a PHKG2; conditions: at 10 µM
T1 sequence (whole entry): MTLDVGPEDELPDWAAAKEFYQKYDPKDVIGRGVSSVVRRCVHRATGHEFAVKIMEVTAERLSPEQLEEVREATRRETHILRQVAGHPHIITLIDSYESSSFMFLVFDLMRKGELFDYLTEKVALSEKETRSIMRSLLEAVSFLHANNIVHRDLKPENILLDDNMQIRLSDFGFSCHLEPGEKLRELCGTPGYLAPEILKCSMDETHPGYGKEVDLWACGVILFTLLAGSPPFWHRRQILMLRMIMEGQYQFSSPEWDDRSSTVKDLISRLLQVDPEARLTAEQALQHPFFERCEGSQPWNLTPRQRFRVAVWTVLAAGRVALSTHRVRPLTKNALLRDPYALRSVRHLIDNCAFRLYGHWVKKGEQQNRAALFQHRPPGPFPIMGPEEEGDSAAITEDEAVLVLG

[8] = biological target: Vascular endothelial growth factor receptor 1 (Homo sapiens) (UniProt P17948); assay: Selectivity interaction (KinomeScan (DiscoverX)) EUB0001049a FLT1; conditions: at 1 µM
Vascular endothelial growth factor receptor 1 (Homo sapiens), sequence (P17948 whole entry): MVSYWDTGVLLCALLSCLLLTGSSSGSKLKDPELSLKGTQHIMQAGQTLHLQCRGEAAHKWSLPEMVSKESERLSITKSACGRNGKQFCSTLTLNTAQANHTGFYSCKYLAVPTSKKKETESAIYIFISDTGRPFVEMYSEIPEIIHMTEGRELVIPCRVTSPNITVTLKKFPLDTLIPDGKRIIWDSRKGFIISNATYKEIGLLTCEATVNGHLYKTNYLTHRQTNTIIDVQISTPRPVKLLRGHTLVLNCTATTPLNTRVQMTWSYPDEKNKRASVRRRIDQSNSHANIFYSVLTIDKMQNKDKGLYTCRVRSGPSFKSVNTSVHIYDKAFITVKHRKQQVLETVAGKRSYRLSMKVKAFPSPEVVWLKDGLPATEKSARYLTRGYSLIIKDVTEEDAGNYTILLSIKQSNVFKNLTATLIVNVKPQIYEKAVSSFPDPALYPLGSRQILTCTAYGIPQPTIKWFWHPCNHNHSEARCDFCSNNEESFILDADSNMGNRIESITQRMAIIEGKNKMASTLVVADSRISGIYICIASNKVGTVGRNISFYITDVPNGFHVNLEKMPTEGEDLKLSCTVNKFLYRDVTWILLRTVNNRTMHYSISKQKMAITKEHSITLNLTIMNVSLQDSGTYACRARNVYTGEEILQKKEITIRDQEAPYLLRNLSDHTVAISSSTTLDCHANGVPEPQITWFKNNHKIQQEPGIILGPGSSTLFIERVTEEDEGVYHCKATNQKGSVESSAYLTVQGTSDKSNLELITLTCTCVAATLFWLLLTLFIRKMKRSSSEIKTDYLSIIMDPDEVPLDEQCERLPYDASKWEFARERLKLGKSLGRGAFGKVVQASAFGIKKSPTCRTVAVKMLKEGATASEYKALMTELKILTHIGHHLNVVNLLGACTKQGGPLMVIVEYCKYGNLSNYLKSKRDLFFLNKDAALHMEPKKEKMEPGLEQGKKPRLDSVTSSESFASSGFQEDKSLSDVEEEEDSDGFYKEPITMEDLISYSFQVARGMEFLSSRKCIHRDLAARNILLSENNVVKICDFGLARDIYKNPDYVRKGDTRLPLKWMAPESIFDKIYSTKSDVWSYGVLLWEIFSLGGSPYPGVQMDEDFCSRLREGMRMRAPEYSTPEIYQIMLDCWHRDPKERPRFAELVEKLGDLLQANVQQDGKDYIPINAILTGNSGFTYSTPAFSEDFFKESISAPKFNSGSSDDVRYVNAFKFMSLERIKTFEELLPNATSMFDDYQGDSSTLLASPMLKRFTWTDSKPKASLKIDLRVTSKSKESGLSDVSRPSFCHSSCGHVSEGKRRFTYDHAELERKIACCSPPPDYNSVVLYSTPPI

[9] = biological target: Ribosomal protein S6 kinase alpha-2 (Homo sapiens) (UniProt Q15349); assay: Selectivity interaction (Ambit KINOMEscan and KiNATiv profiling in Jurkat cells) EUB0000090b RPS6KA2; assay type: cell-based; conditions: at 1 µM
Ribosomal protein S6 kinase alpha-2 (Homo sapiens), sequence (Q15349 whole entry): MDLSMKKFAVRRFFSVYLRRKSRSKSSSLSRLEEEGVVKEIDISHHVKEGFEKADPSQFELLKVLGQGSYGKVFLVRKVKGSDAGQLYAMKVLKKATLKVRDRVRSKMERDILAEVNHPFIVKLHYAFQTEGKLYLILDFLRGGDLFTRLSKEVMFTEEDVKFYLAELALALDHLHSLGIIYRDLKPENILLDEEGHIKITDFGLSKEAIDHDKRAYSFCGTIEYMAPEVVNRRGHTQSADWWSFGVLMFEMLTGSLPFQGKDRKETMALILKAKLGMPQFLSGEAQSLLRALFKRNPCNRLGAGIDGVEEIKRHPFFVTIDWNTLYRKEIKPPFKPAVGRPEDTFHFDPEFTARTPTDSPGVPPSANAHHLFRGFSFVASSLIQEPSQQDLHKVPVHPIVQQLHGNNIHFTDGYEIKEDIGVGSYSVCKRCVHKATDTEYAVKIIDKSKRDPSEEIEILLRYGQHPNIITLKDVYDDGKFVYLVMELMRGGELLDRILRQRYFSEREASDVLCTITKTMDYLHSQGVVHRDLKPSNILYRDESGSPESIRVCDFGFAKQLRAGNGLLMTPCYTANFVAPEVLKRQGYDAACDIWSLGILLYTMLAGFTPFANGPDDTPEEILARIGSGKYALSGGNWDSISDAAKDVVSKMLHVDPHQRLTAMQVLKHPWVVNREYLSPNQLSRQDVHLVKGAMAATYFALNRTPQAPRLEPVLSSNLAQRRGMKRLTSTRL

[10] = biological target: T2, Tyrosine-protein kinase ITK/TSK (Homo sapiens) (UniProt Q08881); assay: Selectivity interaction (Kinase panel (KiNativ target engagement assay in Jurkat cells)) EUB0001635a ITK; assay type: cell-based; conditions: at 1 µM
T2 sequence (whole entry): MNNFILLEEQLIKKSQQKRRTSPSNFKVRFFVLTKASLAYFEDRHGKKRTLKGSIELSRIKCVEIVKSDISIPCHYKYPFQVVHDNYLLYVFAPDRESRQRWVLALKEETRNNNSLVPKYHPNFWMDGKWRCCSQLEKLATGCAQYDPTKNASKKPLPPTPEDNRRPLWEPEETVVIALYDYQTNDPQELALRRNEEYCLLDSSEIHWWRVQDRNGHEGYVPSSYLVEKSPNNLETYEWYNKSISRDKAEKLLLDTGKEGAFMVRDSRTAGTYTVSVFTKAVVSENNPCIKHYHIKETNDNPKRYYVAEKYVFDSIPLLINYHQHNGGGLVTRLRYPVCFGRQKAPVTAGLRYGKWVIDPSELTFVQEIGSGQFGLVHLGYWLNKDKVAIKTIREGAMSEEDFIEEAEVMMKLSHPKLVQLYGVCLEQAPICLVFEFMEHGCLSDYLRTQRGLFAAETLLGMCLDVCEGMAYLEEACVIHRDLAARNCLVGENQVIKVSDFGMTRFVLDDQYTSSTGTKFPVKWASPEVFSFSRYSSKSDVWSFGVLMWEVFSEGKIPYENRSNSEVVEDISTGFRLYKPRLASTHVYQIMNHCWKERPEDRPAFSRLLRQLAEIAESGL

[11] = biological target: T3, Ephrin type-B receptor 2 (Homo sapiens) (UniProt P29323); conditions: at 10 µM
T3 sequence (whole entry): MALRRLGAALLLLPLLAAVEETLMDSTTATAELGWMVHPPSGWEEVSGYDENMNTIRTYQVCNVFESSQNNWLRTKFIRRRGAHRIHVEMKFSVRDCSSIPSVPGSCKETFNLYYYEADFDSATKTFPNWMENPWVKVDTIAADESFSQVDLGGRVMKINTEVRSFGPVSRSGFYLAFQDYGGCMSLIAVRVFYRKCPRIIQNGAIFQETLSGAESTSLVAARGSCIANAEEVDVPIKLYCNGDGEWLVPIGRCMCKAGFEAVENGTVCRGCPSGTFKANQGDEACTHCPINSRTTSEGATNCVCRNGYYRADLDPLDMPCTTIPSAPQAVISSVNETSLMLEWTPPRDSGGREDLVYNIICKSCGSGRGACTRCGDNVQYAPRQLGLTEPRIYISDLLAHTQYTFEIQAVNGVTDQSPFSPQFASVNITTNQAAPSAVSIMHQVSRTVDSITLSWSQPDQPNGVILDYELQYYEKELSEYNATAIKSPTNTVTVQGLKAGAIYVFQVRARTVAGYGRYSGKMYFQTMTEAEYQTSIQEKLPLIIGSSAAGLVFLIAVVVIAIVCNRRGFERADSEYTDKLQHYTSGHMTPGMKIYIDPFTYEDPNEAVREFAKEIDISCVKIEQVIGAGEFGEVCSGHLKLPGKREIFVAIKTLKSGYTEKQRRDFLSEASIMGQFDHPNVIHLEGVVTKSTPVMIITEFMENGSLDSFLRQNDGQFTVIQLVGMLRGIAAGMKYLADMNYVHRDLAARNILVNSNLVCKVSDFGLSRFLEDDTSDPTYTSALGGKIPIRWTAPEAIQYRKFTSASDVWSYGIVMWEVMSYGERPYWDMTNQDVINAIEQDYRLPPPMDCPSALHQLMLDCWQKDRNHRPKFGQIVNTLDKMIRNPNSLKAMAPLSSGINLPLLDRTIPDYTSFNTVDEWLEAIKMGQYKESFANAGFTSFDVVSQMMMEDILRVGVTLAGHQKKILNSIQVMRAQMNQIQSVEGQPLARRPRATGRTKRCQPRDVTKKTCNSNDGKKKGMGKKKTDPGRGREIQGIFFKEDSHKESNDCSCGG

Proto-oncogene tyrosine-protein kinase receptor Ret (Homo sapiens), P07949 [V804L], sequence (P07949 whole entry V804L): as the sequence (P07949 whole entry) above, with V804L counted along it

Structure (SMILES): CNC(=O)Nc1ccc(-c2nc(N3CC4CCC(C3)O4)c3cnn(C4CCC5(CC4)OCCO5)c3n2)cc1
% of control [1]: 85%
% of control [2]: 91%
% of control [3]: 100%
% of control [4]: 73%

% of inhibition [5]: 46%
Structure (SMILES): Cc1ccc(-c2ccc3c(ccc4sc5c(c43)NC[C@@H](C)NC5=O)n2)cn1

% of inhibition [6]: 14.4%
Structure (SMILES): CC[C@@H]1[C@H](F)C(=O)N[C@@H]1COc1nccc2cc(C(N)=O)c(OC)cc12 [ZIMLOVISERTIB]

Structure (SMILES): COCC(=O)NC/C=C/c1ccc2ncnc(Nc3ccc(Oc4ccc(C)nc4)c(C)c3)c2c1 [CP-724714]
% of control [7]: 86%

Structure (SMILES): COc1cc(Nc2nc(C)cc(-c3cnn4nc(OC)ccc34)n2)cc(C(F)(F)F)c1
% of control [8]: 82%

Structure (SMILES): CN(C)C/C=C/C(=O)Nc1ccc(C(=O)N2CCCC(Nc3ncc(Cl)c(-c4c[nH]c5ccccc45)n3)C2)cc1 (configuration not stated)
% of control [9]: 88%

Structure (SMILES): C=CC(=O)Nc1ccc(C(=O)Nc2[nH]nc3c2CN(C(=O)N[C@H](CN(C)C)c2ccccc2)C3(C)C)cc1
% of engagement ([10]; Selectivity number of off-targets 0.0, Selectivity number of targets 233.0, Source Knowledge https://www.sciencedirect.com/science/article/pii/S2451945619300674?via%3Dihub): 0.3%
% of engagement [10]: 2.5%

Structure (SMILES): Cc1cc([C@@H](C)Nc2ccccc2C(=O)O)c2nc(N3CCOCC3)cc(=O)n2c1 [AZD-6482]
% of control [11]: 100%
